≈ marks a conversion by molar mass, not a printed value. Calls of active or inactive are those of the source. No cut-off for these calls is given here.
Experiments:
Bacillus subtilis [1] = experiment: Antibacterial activity against Bacillus subtilis after 18 hr by serial dilution method; format: functional
Vibrio cholerae [2] = experiment: Antibacterial activity against Vibrio cholerae after 24 hr by disk diffusion method; format: functional
Escherichia coli [3] = experiment: Antibacterial activity against Escherichia coli after 24 hr by disc diffusion method; format: functional
[4] = system: Staphylococcus epidermidis; experiment: Antibacterial activity against Staphylococcus albus after 18 hr by serial dilution method; format: functional
Trichophyton rubrum [5] = experiment: Antifungal activity against Trichophyton rubrum after 18 hr by serial dilution method; format: functional
HeLa [6] = experiment: Growth inhibition of Homo sapiens (human) HeLa cells at 12.5 uM after 48 hr by MTT assay; format: functional; details: read-out: GI
HeLa [7] = experiment: Growth inhibition of Homo sapiens (human) HeLa cells at 100 uM after 48 hr by MTT assay; format: functional; details: read-out: GI
Aspergillus niger [8] = experiment: Antifungal activity against Aspergillus niger after 24 hr by disc diffusion method; format: functional
[9] = system: Staphylococcus epidermidis; experiment: Antibacterial activity against Staphylococcus albus after 24 hr by disk diffusion method; format: functional
HeLa [10] = experiment: Growth inhibition of Homo sapiens (human) HeLa cells at 50 uM after 48 hr by MTT assay; format: functional; details: read-out: GI
Pseudomonas aeruginosa [11] = experiment: Antibacterial activity against Pseudomonas aeruginosa after 24 hr by disc diffusion method; format: functional
Bacillus subtilis [12] = experiment: Antibacterial activity against Bacillus subtilis after 24 hr by disk diffusion method; format: functional
Escherichia coli [13] = experiment: Antibacterial activity against Escherichia coli after 18 hr by serial dilution method; format: functional
HeLa [14] = experiment: Cytotoxicity against Homo sapiens (human) HeLa cells after 48 hr by MTT assay; format: functional, cell-based
Vibrio cholerae [15] = experiment: Antibacterial activity against Vibrio cholerae after 18 hr by serial dilution method; format: functional
HeLa [16] = experiment: Growth inhibition of Homo sapiens (human) HeLa cells at 25 uM after 48 hr by MTT assay; format: functional; details: read-out: GI
Micrococcus luteus [17] = experiment: Antibacterial activity against Micrococcus luteus after 18 hr by serial dilution method; format: functional
Salmonella paratyphi [18] = experiment: Antibacterial activity against Salmonella enterica subsp. enterica serovar Paratyphi A after 18 hr by serial dilution method; format: functional
Micrococcus luteus [19] = experiment: Antibacterial activity against Micrococcus luteus after 24 hr by disk diffusion method; format: functional
Salmonella paratyphi [20] = experiment: Antibacterial activity against Salmonella enterica subsp. enterica serovar Paratyphi A after 24 hr by disk diffusion method; format: functional
Candida albicans [21] = experiment: Antifungal activity against Candida albicans after 18 hr by serial dilution method; format: functional
Monascus purpureus [22] = experiment: Antifungal activity against Monascus purpureus after 18 hr by serial dilution method; format: functional
Monascus purpureus [23] = experiment: Antifungal activity against Monascus purpureus after 24 hr by disk diffusion method; format: functional
Trichophyton rubrum [24] = experiment: Antifungal activity against Trichophyton rubrum after 24 hr by disk diffusion method; format: functional
Aspergillus niger [25] = experiment: Antifungal activity against Aspergillus niger after 18 hr by serial dilution method; format: functional
[26] = system: Radical scavenging activity; experiment: Antioxidant activity assessed as DPPH radical scavenging activity after 30 min by spectrophotometric analysis; format: functional
Pseudomonas aeruginosa [27] = experiment: Antibacterial activity against Pseudomonas aeruginosa after 18 hr by serial dilution method; format: functional
Candida albicans [28] = experiment: Antifungal activity against Candida albicans after 24 hr by disk diffusion method; format: functional
[29] = Antioxidant activity assessed as reduction of ferric ion after 30 min by spectrophotometric analysis; format: functional
Staphylococcus aureus [30] = experiment: Antibacterial activity against Staphylococcus aureus after 18 hr by serial dilution method; format: functional
Staphylococcus aureus [31] = experiment: Antibacterial activity against Staphylococcus aureus after 24 hr by disk diffusion method; format: functional
HeLa [32] = experiment: Growth inhibition of Homo sapiens (human) HeLa cells at 6.25 uM after 48 hr by MTT assay; format: functional; details: read-out: GI
[33] = system: Mycobacterium tuberculosis; experiment: Growth inhibition of Mycobacterium tuberculosis H37Rv at 10 ug/ml after 7 days by resazurin microplate assay; format: functional, organism-based
[34] = system: Mycobacterium tuberculosis; experiment: Growth inhibition of Mycobacterium tuberculosis H37Rv at 1 ug/ml after 7 days by resazurin microplate assay; format: functional, organism-based
[35] = system: Mycobacterium tuberculosis; experiment: Growth inhibition of Mycobacterium tuberculosis H37Rv at 100 ug/ml after 7 days by resazurin microplate assay; format: functional, organism-based

O=C(NCC(=O)N1c2ccccc2Sc2ccccc21)NN1C(=O)C(Cl)C1c1ccc(Cl)cc1 (centres undefined)
MIC (Bacillus subtilis [1]): 125 µg/mL (≈ 243 µM) | diameter of the inhibition zone (DIZ) (Vibrio cholerae [2]): 18 mm | diameter of the inhibition zone (DIZ) (Escherichia coli [3]): 19 mm | MIC [4]: 250 µg/mL (≈ 487 µM) | MIC (Trichophyton rubrum [5]): 250 µg/mL (≈ 487 µM) | inhibition of growth at 12.5 µM (HeLa [6]): 5.9% | inhibition of growth at 100 µM (HeLa [7]): 44.3% | diameter of the inhibition zone (DIZ) (Aspergillus niger [8]): 12 mm | diameter of the inhibition zone (DIZ) [9]: 5 mm | inhibition of growth at 50 µM (HeLa [10]): 33.6% | diameter of the inhibition zone (DIZ) (Pseudomonas aeruginosa [11]): 5 mm | diameter of the inhibition zone (DIZ) (Bacillus subtilis [12]): 7 mm | MIC (Escherichia coli [13]): 62.5 µg/mL (≈ 122 µM) | IC50 (HeLa [14]): 111 µM | MIC (Vibrio cholerae [15]): 62.5 µg/mL (≈ 122 µM) | inhibition of growth at 25 µM (HeLa [16]): 15.9% | MIC (Micrococcus luteus [17]): 250 µg/mL (≈ 487 µM) | MIC (Salmonella paratyphi [18]): 250 µg/mL (≈ 487 µM) | diameter of the inhibition zone (DIZ) (Micrococcus luteus [19]): 5 mm | diameter of the inhibition zone (DIZ) (Salmonella paratyphi [20]): 5 mm | MIC (Candida albicans [21]): 125 µg/mL (≈ 243 µM) | MIC (Monascus purpureus [22]): 62.5 µg/mL (≈ 122 µM) | diameter of the inhibition zone (DIZ) (Monascus purpureus [23]): 12 mm | diameter of the inhibition zone (DIZ) (Trichophyton rubrum [24]): 6 mm | MIC (Aspergillus niger [25]): 125 µg/mL (≈ 243 µM) | EC50 [26]: 56 µg/mL (≈ 109 µM) | MIC (Pseudomonas aeruginosa [27]): 250 µg/mL (≈ 487 µM) | diameter of the inhibition zone (DIZ) (Candida albicans [28]): 7 mm | Activity [29]: Active | MIC (Staphylococcus aureus [30]): 62.5 µg/mL (≈ 122 µM) | diameter of the inhibition zone (DIZ) (Staphylococcus aureus [31]): 4 mm | inhibition of growth at 6.25 µM (HeLa [32]): 0.123%

O=C(NCC(=O)N1c2ccccc2Sc2ccccc21)NN1C(=O)C(Cl)C1c1ccc(O)cc1 (centres undefined)
MIC (Bacillus subtilis [1]): 125 µg/mL (≈ 253 µM) | diameter of the inhibition zone (DIZ) (Vibrio cholerae [2]): 9 mm | diameter of the inhibition zone (DIZ) (Escherichia coli [3]): 5 mm | MIC [4]: 125 µg/mL (≈ 253 µM) | MIC (Trichophyton rubrum [5]): 250 µg/mL (≈ 505 µM) | inhibition of growth at 12.5 µM (HeLa [6]): 5.04% | inhibition of growth at 100 µM (HeLa [7]): 53% | diameter of the inhibition zone (DIZ) (Aspergillus niger [8]): 8 mm | diameter of the inhibition zone (DIZ) [9]: 13 mm | inhibition of growth at 50 µM (HeLa [10]): 37.4% | diameter of the inhibition zone (DIZ) (Pseudomonas aeruginosa [11]): 18 mm | diameter of the inhibition zone (DIZ) (Bacillus subtilis [12]): 10 mm | MIC (Escherichia coli [13]): 250 µg/mL (≈ 505 µM) | IC50 (HeLa [14]): 84.1 µM | MIC (Vibrio cholerae [15]): 125 µg/mL (≈ 253 µM) | inhibition of growth at 25 µM (HeLa [16]): 19.1% | MIC (Micrococcus luteus [17]): 62.5 µg/mL (≈ 126 µM) | MIC (Salmonella paratyphi [18]): 62.5 µg/mL (≈ 126 µM) | diameter of the inhibition zone (DIZ) (Micrococcus luteus [19]): 12 mm | diameter of the inhibition zone (DIZ) (Salmonella paratyphi [20]): 12 mm | MIC (Candida albicans [21]): 62.5 µg/mL (≈ 126 µM) | MIC (Monascus purpureus [22]): 500 µg/mL (≈ 1010 µM) | diameter of the inhibition zone (DIZ) (Monascus purpureus [23]): 10 mm | diameter of the inhibition zone (DIZ) (Trichophyton rubrum [24]): 8 mm | MIC (Aspergillus niger [25]): 62.5 µg/mL (≈ 126 µM) | MIC (Pseudomonas aeruginosa [27]): 62.5 µg/mL (≈ 126 µM) | diameter of the inhibition zone (DIZ) (Candida albicans [28]): 13 mm | MIC (Staphylococcus aureus [30]): 125 µg/mL (≈ 253 µM) | diameter of the inhibition zone (DIZ) (Staphylococcus aureus [31]): 9 mm | inhibition of growth at 6.25 µM (HeLa [32]): 0.123%

O=C(NCC(=O)N1c2ccccc2Sc2ccccc21)NN1C(=O)C(Cl)C1c1ccc([N+](=O)[O-])cc1 (centres undefined)
MIC (Bacillus subtilis [1]): 250 µg/mL (≈ 477 µM) | diameter of the inhibition zone (DIZ) (Vibrio cholerae [2]): 5 mm | diameter of the inhibition zone (DIZ) (Escherichia coli [3]): 15 mm | MIC [4]: 250 µg/mL (≈ 477 µM) | MIC (Trichophyton rubrum [5]): 250 µg/mL (≈ 477 µM) | inhibition of growth at 12.5 µM (HeLa [6]): 41.8% | growth inhibition (GI) [33]: inactive | inhibition of growth at 100 µM (HeLa [7]): 89.5% | diameter of the inhibition zone (DIZ) (Aspergillus niger [8]): 9 mm | diameter of the inhibition zone (DIZ) [9]: 4 mm | inhibition of growth at 50 µM (HeLa [10]): 73.2% | diameter of the inhibition zone (DIZ) (Bacillus subtilis [12]): 5 mm | MIC (Escherichia coli [13]): 62.5 µg/mL (≈ 119 µM) | growth inhibition (GI) [34]: inactive | IC50 (HeLa [14]): 18.3 µM | MIC (Vibrio cholerae [15]): 250 µg/mL (≈ 477 µM) | inhibition of growth at 25 µM (HeLa [16]): 56.5% | MIC (Micrococcus luteus [17]): 250 µg/mL (≈ 477 µM) | MIC (Salmonella paratyphi [18]): 125 µg/mL (≈ 239 µM) | diameter of the inhibition zone (DIZ) (Micrococcus luteus [19]): 3 mm | diameter of the inhibition zone (DIZ) (Salmonella paratyphi [20]): 7 mm | MIC (Candida albicans [21]): 62.5 µg/mL (≈ 119 µM) | MIC (Monascus purpureus [22]): 62.5 µg/mL (≈ 119 µM) | diameter of the inhibition zone (DIZ) (Monascus purpureus [23]): 13 mm | diameter of the inhibition zone (DIZ) (Trichophyton rubrum [24]): 5 mm | MIC (Aspergillus niger [25]): 500 µg/mL (≈ 954 µM) | MIC (Pseudomonas aeruginosa [27]): 500 µg/mL (≈ 954 µM) | growth inhibition (GI) [35]: Active | diameter of the inhibition zone (DIZ) (Candida albicans [28]): 14 mm | MIC (Staphylococcus aureus [30]): 250 µg/mL (≈ 477 µM) | diameter of the inhibition zone (DIZ) (Staphylococcus aureus [31]): 4 mm | inhibition of growth at 6.25 µM (HeLa [32]): 23.6%

Reference: ChEMBL document CHEMBL3044552, “Synthesis and biological evaluation of 1-(3-chloro-2-oxo-4-phenylazetidin-1-yl)-3-(2-oxo-2-(10H-phenothiazin-10-yl)ethyl)urea derivatives” (Med Chem Res, 2013)
